Target: T1, Glutaminase kidney isoform, mitochondrial (Homo sapiens, UniProt O94925)
T1 sequence (O94925 whole entry): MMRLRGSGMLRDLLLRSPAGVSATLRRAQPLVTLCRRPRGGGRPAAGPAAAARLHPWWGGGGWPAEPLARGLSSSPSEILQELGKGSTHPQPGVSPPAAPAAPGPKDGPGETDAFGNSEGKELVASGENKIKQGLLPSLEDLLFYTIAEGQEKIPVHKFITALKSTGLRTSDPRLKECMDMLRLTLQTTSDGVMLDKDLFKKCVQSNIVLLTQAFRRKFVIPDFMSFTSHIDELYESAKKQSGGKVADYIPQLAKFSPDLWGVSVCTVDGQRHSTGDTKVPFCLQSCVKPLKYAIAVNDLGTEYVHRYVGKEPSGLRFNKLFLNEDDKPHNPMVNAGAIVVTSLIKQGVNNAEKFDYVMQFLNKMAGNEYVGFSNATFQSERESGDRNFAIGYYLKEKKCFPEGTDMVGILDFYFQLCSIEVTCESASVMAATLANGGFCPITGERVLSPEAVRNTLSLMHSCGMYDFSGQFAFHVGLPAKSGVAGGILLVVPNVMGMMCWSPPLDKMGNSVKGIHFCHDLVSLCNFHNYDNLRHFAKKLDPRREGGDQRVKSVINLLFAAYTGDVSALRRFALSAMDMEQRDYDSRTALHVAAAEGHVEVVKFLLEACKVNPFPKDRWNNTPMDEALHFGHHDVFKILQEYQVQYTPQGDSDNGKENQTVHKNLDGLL
Experiment: Inhibition of human KGA (1 to 669 residues) preincubated for 20 mins using 7 mM glutamine as substrate

IC50 [nM]	Compound
10200	O=C(Nc1nnc(CCOCCc2nnc(NC(=O)c3ccccc3)s2)s1)c1ccccc1

Target: T1, Glutaminase kidney isoform, mitochondrial
Experiment: Inhibition of GAC (unknown origin) assessed as NADH formation using 1.8 to 13 mM glutamine as substrate preincubated for 60 mins by resorufin dye based assay

IC50 [nM]	Compound
< 100	O=C(Cc1c[nH]c2ccccc12)Nc1nnc(CCCCc2nnc(NC(=O)Cc3c[nH]c4ccccc34)s2)s1
2000 to 10000	O=C(Cc1ccccn1)Nc1nnc(CC2CC(Cc3nnc(NC(=O)Cc4ccccn4)s3)C2)s1 (centres undefined)
< 100	O=C(Cc1ccccn1)Nc1nnc([C@H]2CCC[C@H](c3nnc(NC(=O)Cc4ccccn4)s3)C2)s1
< 100	O=C(Cc1ccccn1)Nc1ccc([C@@H]2CCC[C@H](c3ccc(NC(=O)Cc4ccccn4)nn3)C2)nn1
2000 to 10000	O=C(Cc1ccccn1)Nc1nnc(CC2CCC(Cc3nnc(NC(=O)Cc4ccccn4)s3)C2)s1 (centres undefined)
< 100	O=C(Cc1ccccn1)Nc1nnc([C@H]2CC[C@H](c3nnc(NC(=O)Cc4ccccn4)s3)C2)s1
500 to 1000	O=C(Cc1ccccn1)Nc1nnc(C[C@H]2CC[C@H](Cc3nnc(NC(=O)Cc4ccccn4)s3)CC2)s1
2000 to 10000	CC(=O)Nc1ccc([C@H]2CCC[C@H](c3ccc(NC(C)=O)nn3)C2)nn1
< 100	O=C(Cc1ccccn1)Nc1nnc([C@@H]2CC[C@@H](c3nnc(NC(=O)Cc4ccccn4)s3)C2)s1
< 100	O=C(Cc1ccccc1)Nc1nnc([C@H]2CCC[C@H](c3nnc(NC(=O)Cc4ccccc4)s3)C2)s1
< 100	CC(=O)Nc1ccc([C@@H]2CCC[C@H](c3ccc(NC(C)=O)nn3)C2)nn1
< 100	O=C(CCCC(=O)c1ccccc1)Nc1nnc(CCCCc2nnc(NC(=O)CCCC(=O)c3ccccc3)s2)s1
1000 to 2000	O=C(Cc1ccccn1)Nc1nnc([C@@H]2CCC[C@H](c3nnc(NC(=O)Cc4ccccn4)s3)C2)s1
500 to 1000	O=C(Cc1ccccn1)Nc1nnc([C@@H]2CC[C@H](c3nnc(NC(=O)Cc4ccccn4)s3)C2)s1
1000 to 2000	O=C(Cc1ccccn1)Nc1nnc(C2CCCCC(c3nnc(NC(=O)Cc4ccccn4)s3)C2)s1 (centres undefined)
500 to 1000	O=C(Cc1ccccn1)Nc1nnc(C[C@@H]2C[C@H]2Cc2nnc(NC(=O)Cc3ccccn3)s2)s1 (racemic)
1000 to 2000	O=C(Cc1ccccn1)Nc1nnc([C@@H]2CCC[C@@H](c3nnc(NC(=O)Cc4ccccn4)s3)C2)s1
< 100	O=C(Cc1ccccn1)Nc1ccc([C@H]2CCC[C@H](c3ccc(NC(=O)Cc4ccccn4)nn3)C2)nn1

Target: T1, Glutaminase kidney isoform, mitochondrial
Experiment: Inhibition of GAC (unknown origin) assessed as NADH formation using 10 mM glutamine as substrate preincubated for 60 mins

IC50 [nM]	Compound
10	O=C(Cc1ccccc1)Nc1ccc(CCCCc2ccc(NC(=O)Cc3ccccc3)nn2)nn1
240	CN(C)c1ccc(CC(=O)Nc2nnc(CCCCc3nnc(NC(=O)Cc4ccc(N(C)C)cc4)s3)s2)cc1
80	O=C(Cc1ccccc1)Nc1ccc(CCCCc2nnc(NC(=O)Cc3ccccc3)s2)nn1

Target: T1, Glutaminase kidney isoform, mitochondrial
Experiment: Inhibition of GAC (unknown origin) using 1 mM glutamine as substrate preincubated for 10 mins by resorufin dye based assay

IC50 [nM]	Compound
≤ 100	O=C(Cc1ccccc1)Nc1ccn(CC(F)CCn2cc(C(=O)NCc3cccc(OC(F)(F)F)c3)nn2)c(=O)c1 (centres undefined)
≤ 100	O=C(Cc1ccccc1)Nc1ccn(CCCCc2cc3cc(Cc4ccccc4)[nH]c3nn2)c(=O)c1
≤ 100	O=C(Cc1ccccc1)Nc1nnc(CCCCc2cc3cc(Cc4ccccc4)[nH]c3nn2)s1
≤ 100	Cc1ccc(CNC(=O)c2cn(CCCCc3cc4cc(-c5ccccc5F)[nH]c4nn3)nn2)cn1
≤ 100	O=C(Cc1cccc(OC(F)(F)F)c1)Nc1ccc(C2CCN(c3nnc(NC(=O)Cc4ccccn4)s3)C2)nn1 (centres undefined)
≤ 100	O=C(Cc1ccccc1)Nc1ccc(CCCCn2ccc(NC(=O)Cc3ccccc3)nc2=O)nn1
< 100	O=C(NCc1ccccn1)c1cn(CCCCc2nnc(C(=O)NCc3cccc(OC(F)(F)F)c3)s2)nn1
100 to 500	O=C(Cc1ccccn1)Nc1ccc([C@H]2CCN(c3nnc(C(=O)NCc4cc(C(F)(F)F)ccn4)s3)C2)nn1
≤ 100	O=C(Cc1ccccc1)Nc1ccn(CCC(F)Cn2cc(C(=O)NCc3cccc(OC(F)(F)F)c3)nn2)c(=O)c1 (centres undefined)
≤ 100	O=C(Cc1ccccc1)Nc1ccn(CCCCc2nnc(NC(=O)Cc3ccccc3)s2)c(=O)c1
≤ 100	O=C(NCc1ccccc1)c1cn(CCCCc2cc3cc(Cc4ccccc4)[nH]c3nn2)nn1
≤ 100	O=C(Cc1ccccn1)Nc1ccc([C@@H]2CCN(c3nnc(C(=O)NCc4cc(C(F)(F)F)ccn4)s3)C2)nn1
≤ 100	O=C(Cc1ccccc1)Nc1ccn(CCCCn2cc(C(=O)NCc3cccc(OC(F)(F)F)c3)nn2)c(=O)c1
≤ 100	O=C(Cc1cccc(OC(F)(F)F)c1)Nc1ccc(N2CCC(c3nnc(NC(=O)Cc4ccccn4)s3)C2)nn1 (centres undefined)
≤ 100	O=C(Cc1ccccc1)Nc1ccn(CCCCc2nnc(NC(=O)Cc3ccccc3)s2)c(=O)n1
< 100	O=C(Cc1cccc(OC(F)(F)F)c1)Nc1ccc(CCCCc2nnc(C(=O)NCc3ccccn3)s2)nn1

Target: not listed separately
Experiment: Inhibition of mouse brain glutaminase assessed as ammonia formation using glutamine as substrate by Nessler's reagent based assay

IC50 [nM]	Compound
50 to 100	O=C(Cc1cccc(OC(F)(F)F)c1)Nc1ccc(CCCCc2nnc(NC(=O)Cc3ccccn3)s2)cn1

Target: T2, Glutaminase kidney isoform, mitochondrial (Mus musculus, UniProt D3Z7P3)
T2 sequence (D3Z7P3 whole entry): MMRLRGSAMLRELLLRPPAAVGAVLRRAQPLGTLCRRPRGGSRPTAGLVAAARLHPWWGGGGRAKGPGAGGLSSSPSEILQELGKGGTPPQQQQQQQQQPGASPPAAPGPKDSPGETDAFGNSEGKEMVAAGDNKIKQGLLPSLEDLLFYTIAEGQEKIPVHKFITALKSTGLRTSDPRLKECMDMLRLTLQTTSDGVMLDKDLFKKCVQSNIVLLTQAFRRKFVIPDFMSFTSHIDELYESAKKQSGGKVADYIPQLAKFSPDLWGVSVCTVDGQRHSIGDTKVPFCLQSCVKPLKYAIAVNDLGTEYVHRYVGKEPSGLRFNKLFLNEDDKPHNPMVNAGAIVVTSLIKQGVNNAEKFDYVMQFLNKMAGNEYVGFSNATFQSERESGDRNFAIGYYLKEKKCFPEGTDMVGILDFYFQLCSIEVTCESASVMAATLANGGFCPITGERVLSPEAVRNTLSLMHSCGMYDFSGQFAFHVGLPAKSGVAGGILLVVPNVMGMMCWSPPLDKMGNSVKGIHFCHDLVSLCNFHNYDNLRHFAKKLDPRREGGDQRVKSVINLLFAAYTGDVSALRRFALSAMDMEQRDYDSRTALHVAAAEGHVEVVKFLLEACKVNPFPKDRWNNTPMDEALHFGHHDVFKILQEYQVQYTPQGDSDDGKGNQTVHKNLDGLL
Experiment: Inhibition of mouse kidney glutaminase assessed as ammonia formation using glutamine as substrate by Nessler's reagent based assay

IC50 [nM]	Compound
50 to 100	O=C(Cc1cccc(OC(F)(F)F)c1)Nc1ccc(CCCCc2nnc(NC(=O)Cc3ccccn3)s2)cn1

Target: not listed separately
Experiment: (§1) Inhibition of mouse brain glutaminase assessed as ammonia formation at 0.1 uM using glutamine as substrate by Nessler's reagent based assay relative to control

IC50 [nM]	Compound
50 to 200	O=C(Cc1cccc(OC(F)(F)F)c1)Nc1ccc(N2CCCC(c3nnc(NC(=O)Cc4ccccn4)s3)C2)nn1 (centres undefined)
< 25	O=C(Cc1cccc(OC(F)(F)F)c1)Nc1ccc(CC2CC(c3nnc(NC(=O)Cc4ccccn4)s3)C2)nn1 (centres undefined)
< 50	O=C(Cc1cccc(OC(F)(F)F)c1)Nc1ccc(N2CCC(c3nnc(NC(=O)Cc4ccccn4)s3)CC2)nn1
< 50	O=C(Cc1ccccn1)Nc1ccc(N2CCC(c3nnc(NC(=O)Cc4cccc(OC(F)(F)F)c4)s3)CC2)nn1
1000 to 2000	O=C(Cc1cccc(OC(F)(F)F)c1)Nc1ccc(N2CCC(c3nnc(NC(=O)Cc4ccccn4)s3)CC2)cn1

Species: Mus musculus
Experiment: as §1

inhibition [%]	Compound
< 25	O=C(Cc1cccc(OC(F)(F)F)c1)Nc1cnc(CCCCc2nnc(NC(=O)Cc3ccccn3)s2)cn1

Target: T3, Glutaminase kidney isoform, mitochondrial (Mus musculus) (UniProt D3Z7P3)
T3 sequence (whole entry): T2 sequence (D3Z7P3 whole entry)
Experiment: (§2) Inhibition of mouse kidney glutaminase assessed as ammonia formation at 0.1 uM using glutamine as substrate by Nessler's reagent based assay relative to control

inhibition [%]	Compound
< 25	O=C(Cc1cccc(OC(F)(F)F)c1)Nc1cnc(CCCCc2nnc(NC(=O)Cc3ccccn3)s2)cn1

Target: T2, Glutaminase kidney isoform, mitochondrial
Experiment: as §2

IC50 [nM]	Compound
50 to 200	O=C(Cc1cccc(OC(F)(F)F)c1)Nc1ccc(N2CCCC(c3nnc(NC(=O)Cc4ccccn4)s3)C2)nn1 (centres undefined)
< 25	O=C(Cc1cccc(OC(F)(F)F)c1)Nc1ccc(CC2CC(c3nnc(NC(=O)Cc4ccccn4)s3)C2)nn1 (centres undefined)
< 50	O=C(Cc1cccc(OC(F)(F)F)c1)Nc1ccc(N2CCC(c3nnc(NC(=O)Cc4ccccn4)s3)CC2)nn1
< 50	O=C(Cc1ccccn1)Nc1ccc(N2CCC(c3nnc(NC(=O)Cc4cccc(OC(F)(F)F)c4)s3)CC2)nn1
1000 to 2000	O=C(Cc1cccc(OC(F)(F)F)c1)Nc1ccc(N2CCC(c3nnc(NC(=O)Cc4ccccn4)s3)CC2)cn1

Target: T1, Glutaminase kidney isoform, mitochondrial
Experiment: Inhibition of kidney-type glutaminase in human BT20 cells assessed as reduction in glutamate level
Format: cell-based

IC50 [nM]	Compound
2.7	Cn1ccc(CC(=O)Nc2nnc([C@H]3C[C@@]4(C[C@H](c5nnc(NC(=O)Cc6ccn(C)n6)s5)C4)C3)s2)n1 (some centres undefined)
0.2	O=C(Cc1cccc(OC(F)(F)F)c1)Nc1ccc(C[C@H]2C[C@@H](c3nnc(NC(=O)Cc4ccccn4)s3)C2)nn1
0.5	Cn1ccc(CC(=O)Nc2nnc([C@H]3C[C@]4(C[C@H](c5nnc(NC(=O)Cc6ccn(C)n6)s5)C4)C3)s2)n1 (some centres undefined)
0.1	O=C(Cc1cccc(OC(F)(F)F)c1)Nc1ccc(C[C@@H]2CC[C@H](c3nnc(NC(=O)Cc4ccccn4)s3)C2)nn1

Target: T1, Glutaminase kidney isoform, mitochondrial
Experiment: Inhibition of human KGA (63 to 669 residues) preincubated for 15 mins using 50 mM glutamine as substrate by resorufin dye based assay

IC50 [nM]	Compound
100	O=C(Nc1nnc(N[C@@H]2CCN(c3cccnn3)C2)s1)[C@@H](c1cccc(OC(F)(F)F)c1)N1CCC1
25	CO[C@H](C(=O)Nc1ccc(N2CC[C@@H](Nc3cccnn3)C2)nn1)c1cccc(OC(F)F)c1
40	CO[C@H](C(=O)Nc1nnc(N[C@@H]2CCN(c3cc(Cl)cnn3)C2)s1)c1ccccc1

Reference: ChEMBL document CHEMBL4308839, “Recent Progress in the Discovery of Allosteric Inhibitors of Kidney-Type Glutaminase” (J Med Chem, 2018)
